These results are taken from USRE39708E1, “Estrogen receptor modulators” (Chiron Corporation, priority 1998, dated 2007).

The subject of this experiment is MCF-7 cells. Description: MCF-7 cell proliferation assay (BrdU incorporation). It counts as cell-based. The settings on record: MCF-7 proliferation, 24 hours, in the absence of estradiol or in the presence of 1 nM estradiol. The method, then:
MCF-7 cells are a common line of breast cancer cells used to determine in vitro estrogen receptor agonist/antagonist activity (MacGregor and Jordan 1998). The effect of a test compound on the proliferation of MCF-7 cells, as measured by the incorporation of 5-bromo-2′-deoxyuridine (“BrdU”) in a chemiluminescent assay format, can be used to determine the relative agonist/antagonist activity of the test compound. MCF-7 cells (ATCC HTB-22) are mainatined in log-phase culture. The cells are plated and incubated in phenol-free medium to avoid external sources of iS estrogenic stimulus (MacGregor and Jordan 1998). The test compound is added at varying concentrations to determine an IC50, for the compound. […]
This assay determines the estrogen agonist/antagonist activity of a test compound by the effect of the test compound on the proliferation of MCF-7 cells as measured by the incorporation of 5-bromo-2′-deoxyuridine (“BrdU”) in a chemiluminescent assay format. […]
The cells were cultured in the presence of test compounds for 24 hours at 37° C. and under a 5% CO2 atmosphere Cell proliferation was detected by measuring the level of BrdU incorporation into DNA. […] The plates were shaken for ten minutes at room temperature, and the resulting chemiluminescent signals were counted using a TRILUX scintillation counter.
In general terms: Uptake of a labelled nucleoside into DNA is a usual measure of proliferation.

`CCc1c(-c2ccc(O)cc2)nn(C2CCC2)c1-c1ccc(O)cc1` [4-[1-cyclobutyl-4-ethyl-5-(4-hydroxyphenyl)pyrazol-3-yl]phenol]: the “concentration at which activity was demonstrated” value is “less than one hundred”. For `CCc1c(-c2ccc(O)cc2)nn(-c2ccccc2C(F)(F)F)c1-c1ccc(O)cc1` [4-{4-ethyl-5-(4-hydroxyphenyl)-1-[2-(trifluoromethyl)phenyl]pyrazol-3-yl}phenol], the “concentration at which activity was demonstrated” value is listed as “less than one hundred”.
